The record followed here is ChEMBL document CHEMBL1159099, “Structure and in vitro antitumor activity evaluation of brominated diterpenes from the red alga Sphaerococcus coronopifolius” (Bioorg Med Chem, 2010).

Assay [1] in a line: Growth inhibition of human apoptosis-resistant U373 cells after 72 hrs by MTT assay. The assay is classed as functional, cell-based, U-373MG ATCC. To be noted: U373 MG.
For another assay, the system named is A549. The assay can be described thus: Growth inhibition of human apoptosis-resistant A549 cells after 72 hrs by MTT assay. The format is functional, cell-based. To be noted: A549, 72 h.
Assay [2] can be described thus: Growth inhibition of human apoptosis-resistant OE21 cells after 72 hrs by MTT assay. To be noted: OE21, 72 h. The assay is classed as functional, cell-based. On the technique in general: Tetrazolium dyes change colour on reduction, which living cells bring about.
For the next assay, the system named is SK-MEL-28. The assay can be described thus: Growth inhibition of human apoptosis-resistant SK-MEL-28 cells after 72 hrs by MTT assay. The format is functional, cell-based. Conditions: SK-MEL-28, 72 h.
The next assay relates to PC-3. The assay can be described thus: Growth inhibition of human apoptosis-sensitive PC3 cells after 72 hrs by MTT assay. The format is functional, cell-based. To be noted: PC-3, 72 h.
Another assay concerns LoVo. The experiment in a line: Growth inhibition of human apoptosis-sensitive LoVo cells after 72 hrs by MTT assay. The format is functional, cell-based.
In assay [3] the test system is U-373MG ATCC. The experiment in a line: Cytostatic effect against human apoptosis-resistant U373 cells at 7 uM assessed as induction of vacuolization after 72 hrs by computer-assisted phase contrast microscopy. The assay is classed as functional, cell-based.
The test system of assay [4] is U-373MG ATCC. The assay can be described thus: Cytostatic effect against human apoptosis-resistant U373 cells assessed as inhibition of cell entry into mitosis at 3 uM after 72 hrs by computer-assisted phase contrast microscopy. The assay is classed as functional, cell-based.
The subject of assay [5] is U-373MG ATCC. The experiment in a line: Cytostatic effect against human apoptosis-resistant U373 cells assessed as increase in mitosis duration at 16 uM after 72 hrs by computer-assisted phase contrast microscopy. The assay is classed as functional, cell-based.

Calls of active or inactive are those of the source. The rule behind the calls is not given here. Where only a bound is given, the exact number is not on record here.

As a reminder, the IC50 is the point on the concentration scale where inhibition reaches its midpoint. A higher IC50 goes with lower potency. For the molecule `CC(C)[C@@H]1C=C[C@H](O)[C@H]2[C@H]3[C@](C)(CC[C@@]21CBr)[C@@H](Br)CC[C@@]3(C)O` [BROMOSPHAERODIOL], the IC50 in assay [1] was found to be 22 µM; in the assay with A549, 24 µM; in assay [2], 15 µM; in the assay with SK-MEL-28, 31 µM; in the assay on PC-3, 26 µM; with LoVo, 20 µM.
Regarding `C=C1CC[C@H]2[C@@H](C(C)C)CC[C@@H]2/C=C/[C@](C)(O)CC[C@H]1OC(C)=O` [SPHAEROLLANE I], the IC50 was found to be 20 µM in assay [1]; 44 µM with A549; 34 µM in assay [2]; 57 µM in the assay on SK-MEL-28; 34 µM with PC-3; 23 µM in the assay on LoVo.
For the molecule `C=C1CC[C@@H]2[C@H]([C@@H]3[C@H](C)CC[C@H]13)C2(C)C`, the IC50 was 71 µM in [1]; 79 µM in the assay with A549; 83 µM in assay [2]; above 100 µM with SK-MEL-28; 35 µM in the assay on PC-3; 63 µM in the assay on LoVo.
In the case of `CC(C)[C@]1(O)C[C@H]2C[C@H]3[C@H]4[C@](C)(CC[C@@]31C2)[C@@H](Br)CC[C@@]4(C)O`, the IC50 is 75 µM in assay [1]; 63 µM in the assay with A549; 64 µM in assay [2]; above 100 µM in the assay with SK-MEL-28; 43 µM in the assay on PC-3; 56 µM with LoVo.
Take `CC(C)[C@@H]1CC=C[C@H]2[C@H]3[C@](C)(CC[C@]12CBr)[C@@H](O)CC(=O)[C@@]3(C)O`: in the assay on U-373MG ATCC [3], the inhibition entry was “Active”. Also, the IC50 was 7.2 µM in [1]; 18 µM in the assay on A549; 8.4 µM in [2]; 21 µM in the assay on SK-MEL-28; 8.1 µM in the assay on PC-3; 5.3 µM with LoVo.
Turning to `CC(=O)[C@H]1[C@@H]2[C@H]3CC[C@@H](C(C)C)[C@]3(C)CC[C@]2(C)[C@@H](Br)C[C@@H]1O` [CORONONE], the IC50 in [1] stood at 31 µM; in the assay with A549 it was 42 µM; in assay [2], 30 µM; in the assay with SK-MEL-28, 38 µM; in the assay on PC-3, 30 µM; in the assay with LoVo, 28 µM.
For `CC(C)[C@@H]1CC[C@H](O)[C@H]2[C@H]3[C@](C)(CC[C@@]21CBr)[C@@H](Br)CC[C@@]3(C)O`, the IC50 in assay [1] came out at 25 µM; with A549, 28.6 µM; in [2], 20 µM; with SK-MEL-28, 26 µM; in the assay with PC-3, 25 µM; with LoVo, 23 µM.
As for `CC(C)[C@@H]1CC=C[C@H]2[C@H]3[C@@](C)(C=CC(=O)[C@@]3(C)O)CC[C@]12CBr` [SPHAEROCOCCENOL A], the inhibition entry with U-373MG ATCC [4] is “Active”. Besides, the IC50 was determined as 3.2 µM in assay [1]; 3.7 µM in the assay on A549; 3 µM in [2]; 5.2 µM in the assay with SK-MEL-28; 3.7 µM in the assay with PC-3; 2.8 µM with LoVo.
For `CC(C)[C@@H]1C[C@@H]2C[C@@]13CC[C@]1(C)[C@@H](Br)CC[C@@](C)(O)[C@H]1[C@@H]3[C@H]2O` [BROMOTETRASPHAEROL], the IC50 in assay [1] turned out to be 34 µM; in the assay on A549 it was 38 µM; in assay [2], 33 µM; in the assay on SK-MEL-28, 43 µM; in the assay on PC-3, 30 µM; in the assay on LoVo, 26 µM.
As to `CC(C)[C@@H]1CC[C@@H]2[C@@H](O)[C@H]3[C@](C)(CC[C@]21C)[C@@H](Br)CC[C@@]3(C)O` [NEODOLASTANE], the IC50 in [1] came to 85 µM; with A549 it was 97 µM; in assay [2], 60 µM; in the assay with SK-MEL-28, 96 µM; in the assay on PC-3, 74 µM; in the assay on LoVo, 64 µM.
`CC(C)[C@@H]1C=C[C@H](OO)[C@H]2[C@@H]3[C@](C)(O)[C@H](O)C[C@H](Br)[C@@]3(C)CC[C@@]21CBr`: the IC50 in assay [1] worked out at 32 µM; with A549 it was 40 µM; in assay [2], 25 µM; with SK-MEL-28 it was 31 µM; in the assay on PC-3 it was 30 µM; with LoVo, 22 µM.
`CC(C)[C@@H]1CC=C[C@H]2[C@@H]3[C@](C)(O)[C@H](O)C[C@H](Br)[C@@]3(C)CC[C@]12CBr`: the IC50 in [1] is 25 µM; with A549, 28 µM; in assay [2], 25 µM; with SK-MEL-28 it was 29 µM; in the assay on PC-3, 26 µM; in the assay on LoVo, 26 µM.
For `CC(C)[C@@H]1CC=C[C@H]2[C@H]3[C@](C)(CC[C@]12CBr)[C@@H](Br)CC[C@@]3(C)O` [BROMOSPHAEROL], the IC50 was 30 µM in [1]; 35 µM with A549; 28 µM in [2]; 34 µM in the assay on SK-MEL-28; 30 µM in the assay on PC-3; 23 µM in the assay with LoVo.
As to `C=C1CC[C@@]2(C)[C@H](/C=C/CC[C@H]1C(C)C)[C@](C)(O)[C@H](O)C[C@@H]2Br`, the IC50 in assay [1] came to 60 µM; with A549 it was 64 µM; in [2] it was 33 µM; in the assay with SK-MEL-28 it was 62 µM; in the assay on PC-3, 48 µM; in the assay on LoVo, 24 µM.
Turning to `CC(C)[C@@H]1C=C[C@H](OO)[C@H]2[C@@H]3[C@](C)(O)[C@@H](O)C[C@H](Br)[C@@]3(C)CC[C@@]21CBr`, the IC50 in [1] came to 22 µM; in the assay with A549, 26 µM; in [2], 27 µM; in the assay with SK-MEL-28, 28 µM; in the assay with PC-3, 28 µM; with LoVo, 28 µM.
Turning to `CC(C)[C@@H]1CC=C[C@H]2[C@@H]3[C@](C)(O)[C@@H](O)C[C@H](Br)[C@@]3(C)CC[C@]12CBr`, in the assay on U-373MG ATCC [5], the inhibition entry is “Active”. The IC50 in assay [1] came to 16 µM; in the assay with A549, 19 µM; in assay [2], 19 µM; in the assay on SK-MEL-28, 22 µM; in the assay on PC-3 it was 12 µM; in the assay with LoVo, 9 µM.
